Test results as given in patent US12285012B2, “Compositions comprising pyridine carboxylate herbicides with acetolactate synthase (ALS) inhibitor herbicides” (Corteva Agriscience LLC, priority 2018, dated 2025).

Legend:
Experiment in all cases: Greenhouse postemergence herbicidal effect
Format in all cases: in vivo
[1] = test system: Italian ryegrass (LOLMU, Lolium multiflorum); details: Compound A 10 g/ha; safener mefenpyr-diethyl
How it was run: (§1)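 Plants at second or third true leaf stage, greenhouse-grown (~14 h photoperiod, about 23/22° C), sprayed at 187 L/ha with pyridine carboxylate herbicide (g ae/ha; with cloquintocet-mexyl safener unless noted) alone or plus ALS herbicide (g ai/ha) in 1.25% v/v oil adjuvant. Visual injury, 0 to 100% versus solvent-blank controls, after 20-22 d.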

[2] = test system: annual ryegrass (LOLMG=Lolium multiflorum subsp. gaudini); details: 10 g/ha
How it was run: (§2)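 Visual rating, 0 (no injury) to 100% (complete kill), taken 20–22 d after treatment relative to solvent-sprayed controls. Pyridine carboxylate (g ae/ha) combined with ALS herbicide (g ai/ha), applied by track sprayer at 187 L/ha with 1.25% v/v oil adjuvant and cloquintocet-mexyl safener.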

[3] = test system: barnyard grass (ECHCG, Echinochloa crus-galli); details: Compound A 10 g/ha
How it was run: as §1

[4] = test system: broadleaf signalgrass (BRAPP, Brachiaria platyphylla); details: Compound A 10 g/ha
How it was run: as §2

[5] = test system: giant foxtail (SETFA, Setaria faberi)
How it was run: as §1

[6] = test system: grain sorghum (SORVU, Sorghum vulgare); details: Compound A 10 g/ha
How it was run: as §1

[7] = test system: nutsedge (CYPES, Cyperus esculentus)
How it was run: as §1

[8] = test system: poinsettia (EPHHL, Euphorbia heterophylla)
How it was run: as §2

[9] = test system: small-flower flatsedge (CYPDI, Cyperus difformis); details: Compound A 10 g/ha
How it was run: as §2

[10] = Compound A 10 g/ha, safener mefenpyr-diethyl

Question: How did the “% visual injury, Obs” value [1] turn out when `N#CCOC(=O)c1nc(-c2ccc3cc[nH]c3c2F)c(F)c(N)c1Cl` [Compound A, cyanomethyl 4-amino-3-chloro-5-fluoro-6-(7-fluoro-1H-indol-6-yl)pyridine-2-carboxylate] was run?
Answer: The value was 10%.

Question: What about the “LOLMU % visual injury Obs” value [1] of the same compound?
Answer: Its value is 10%.

Question: And the “% visual injury, Obs” value [2]?
Answer: Its value is 3%.

Question: And the “% visual injury Obs” value [3]?
Answer: The value was 85%.

Question: What about the “% visual injury, Obs” value ([3]; safener mefenpyr-diethyl) of the same compound?
Answer: Its value is 85%.

Question: What about the “ECHCG % visual injury Obs” value ([3]; safener mefenpyr-diethyl) of the same compound?
Answer: Its value is 85%.

Question: And the “% visual injury Obs” value [4]?
Answer: Its value is 68%.

Question: And the “% visual injury, Obs” value ([5]; 10 g/ha)?
Answer: The value was 0%.

Question: What about the “% visual injury, Obs” value [5, 10] of the same compound?
Answer: Its value is 80%.

Question: What about the “SETFA % visual injury Obs” value [5, 10] of the same compound?
Answer: The value was 80%.

Question: What about the “% visual injury” value [6] of the same compound?
Answer: The value was 0%.

Question: What about the “% visual injury, Obs” value ([6]; safener mefenpyr-diethyl) of the same compound?
Answer: Its value is 10%.

Question: What about the “SORVU % visual injury Obs” value ([6]; safener mefenpyr-diethyl) of the same compound?
Answer: The value was 10%.

Question: And the “% visual injury, Obs” value ([7]; 10 g/ha)?
Answer: The value was 45%.

Question: And the “% visual injury” value ([7]; Compound A 10 g/ha)?
Answer: Its value is 8%.

Question: What about the “% visual injury, Obs” value [7, 10] of the same compound?
Answer: Its value is 28%.

Question: And the “CYPES % visual injury Obs” value [7, 10]?
Answer: The value was 28%.

Question: What about the “% visual injury, Obs” value ([8]; 10 g/ha) of the same compound?
Answer: The value was 83%.

Question: And the “% visual injury” value ([8]; Compound A 10 g/ha)?
Answer: Its value is 97%.

Question: And the “% visual injury Obs” value [9]?
Answer: The value was 72%.
